Results from US20030204875A1, “Novel agrobacterium-mediated plant transformation method” (priority 1999, published 2003).

tested on: Agrobacterium (strain ABI); test: not given; type: cell-based; set-up: key: “No Growth” indicates there was not an increase in cell density indicating bacteriocidal or bacteriostatic property of the chemical; “Slow Growth” indicates that a slight increase in cell density was noticed and a higher level may be lethal; “Growth” indicates no effect on bacterial growth at the concentration used relative to growth in control medium; settings: control, final concentration 50 mg/L; twenty-four hours
Protocol: Each of the chemicals listed in Table 26 was resuspended in MS-BMS media and added (final concentration 50 μM) to a 50 ml overnight culture of Agrobacterium (strain ABI). Twenty-four hours after inoculation the effect of the chemicals on the growth of Agrobacterium was recorded. A known bacteriocidal compound, Carbenicillin at a final concentration of 50 mg/L and AgNO3 (20 μM) were used as controls.

Row | Compound | Effect (on growth of Agrobacterium)
1 | CC1(C)S[C@@H]2[C@H](NC(=O)C(C(=O)O)c3ccccc3)C(=O)N2[C@H]1C(=O)O (some centres unmarked) [Carbenicillin, reference compound] | No Growth

same assay, conditions: final concentration 50 μM in MS-BMS media; twenty-four hours

Row | Compound | Effect (on growth of Agrobacterium)
2 | [Cl][Al]([Cl])[Cl] [Aluminum Chloride] | Growth
3 | [Cl][Cd][Cl] [Cadmium Chloride] | Slow Growth
4 | [Cl][Cr][Cl] [Chromium (II) Chloride] | Growth
5 | [Cl][Ni][Cl] [Nickel Chloride] | Growth
6 | [Na+].[Na+].[O]=[Mo](=[O])([O-])[O-] [Sodium Molybdate] | Growth
7 | [Na+].[Na+].[O]=[W](=[O])([O-])[O-] [Sodium Tungstate] | Growth
8 | [Cl-].[Cl-].[Zn+2] [Zinc Chloride] | Growth
9 | Lead Nitrate | Growth
10 | Manganese Chloride | Slow Growth

tested on: immature embryos of genotype (H99×Pa 91)A188; test: Transformation efficiency of corn with different growth inhibiting agents during co-culture; type: cell-based; settings: 50 mg/L in co-culture medium, three days; OD 4.0
Protocol: b) Biological assay (leaf bleach assay). Leaf samples (a leaf punch) from approximately 2-week-old seedlings were placed in wells of 24-well cell culture clusters (Costar Corporation, Cambridge, Mass.). Each well was filled with 0.5 ml aqueous solution composed of 300 mg/L paromomycin (Sigma) and 100 mg/L Benlate (a fungicide made by Du Pont), 100 mg/IL Benlate alone was used as a control. Three leaf samples from the same leaf of each plant were placed in two wells containing paromomycin plus Benlate and one well containing Benlate alone, respectively. Leaf samples from non-transformed plants were used as negative controls. The samples were vacuum-infiltrated in a dessicator using an in-house vacuum system for 5 min and then the clusters were sealed tightly with parafilm before being placed under light (140 μMol m-2s-1). The results were determined after 60 hours.
Immature embryos of genotype (H99×Pa 91)A188 were isolated as described. […] The Agrobacterium strain was pre-induced as described. The inoculation was performed using a concentration of A660 OD 4.0 for 15 minutes as described. Post inoculation, Agrobacterium suspension was removed and embryos were placed on different semi-solid co-culture media supplemented with various bacteriocidal compounds. All the tissues were incubated for three days in the dark. The transformation protocol followed was as described previously (corn IE transformation) except that the 1st selection with 50 mg/L Paromomycin was replaced with 25 mg/L Paromomycin for 2 weeks and 50 mg/L Paromomycin for 2 additional weeks. Transformation efficiency was calculated based on the number of embryos producing nptII positive plants as determined by a leaf bleach assay as described earlier. Three weeks after the transformation, the quality and growth characteristics of IE-derived callus co-cultured in the presence of different growth inhibiting agents.

Row | Compound | % Transformation
11 | CC1(C)S[C@@H]2[C@H](NC(=O)C(C(=O)O)c3ccccc3)C(=O)N2[C@H]1C(=O)O (some centres unmarked) [Carbenicillin, reference compound] | 14.3%
